Test results from US20240298601A1, “SESAME PLANTS RESISTANT TO ACETOLACTATE SYNTHASE-INHIBITING HERBICIDES, COMPOSITIONS AND METHODS FOR PRODUCING SAME” (Yissum Research Development Company of The Hebrew …, priority 2021, published 2024).

How the values were obtained:
[1] = test system: wild type (S-416) sesame plants; test: Herbicides dose-response assay (post-emergence, pots), wild type; type: in vivo, Sesamum indicum; conditions: for ED50 WT: herbicide rate reducing plant growth (shoot DW) by 50%, 16 DAT, sprayed at two true leaves, n=5
[2] = test system: SiRM plants (mutant SiALS Ala188Val); conditions: for ED50 SiRM: herbicide rate reducing plant growth (shoot DW) by 50%, 16 DAT, n=5, calculated from fitted curve, for Imazamox above the tested rates; for RI (resistance index): resistance/susceptible ratio of the ED50 (SiRM vs WT)
[3] = test system: Amaranthus palmeri; test: Imazamox post-emergence field experiment, weed control; type: in vivo; conditions: Imazamox 40 g a.i. h^−1, non-treated ~12 plants m^−1
Procedure: The experiment was conducted in the Experimental Farm of the Hebrew University of Jerusalem in Rehovot, Israel ([…]; 54 m above sea level). The soil at this location is brown-red, degrading, sandy soil (Rhodoxeralf), composed of 76% sand, 8% silt, and 16% clay. […] Each plot consisted of a 5-meter row, with a sowing density of 7-plants m^−1 (n=6). At the end of the season, the survival rate was analyzed (number of plants per plot) and the plants in the plot were harvested. Samples were threshed using a laboratory thresher (Wintersteiger AG LD 350, Austria) and after sifting, the seeds were weighed to obtain seed yield.
To test the efficiency of Imazamox for weed control, Amaranthus palmeri was used as a model. Seeds of A. palmeri were sown (20-seeds m-1) as competitor weeds alongside the two sesame lines described above. As a negative control, plots that were not treated were used. At the end of the experiment, the number of A. palmeri plants per plot was counted.

[4] = test system: hybrid (F1) plants (SiRM x WT); test: Physiological characterization of F1 hybrid plants under Imazamox; type: in vivo, Sesamum indicum; conditions: Imazamox 48 g a.i. h^−1
Procedure: (§1) A cross between SiRM (♂) and the WT (♀) was made to produce F1 seeds. […] The pots were placed in a growth chamber under long-day conditions (16/8 light/dark and 32/25° C.). […] Plants were characterized daily for canopy coverage (Canopeo software, Oklahoma State University, USA; Patrignani and Ochsner, 2015. Agronomy Journal, 107:2312-2320) and gas exchange (IRGA 6800; Li-Cor, Lincoln, Nebraska, USA), over the next 11 days. At the end of the experiment, 21 DAT, the aboveground material was harvested, oven-dried (80° C., 48 h), and weighed to obtain shoot DW.

[5] = test system: SiRM plants; test: Imazamox post-emergence field experiment, SiRM sesame; type: in vivo, Sesamum indicum
[6] = test system: SiRM plants; test: Physiological characterization under Imazamox, SiRM parental line; type: in vivo, Sesamum indicum; conditions: Imazamox 48 g a.i. h^−1
Procedure: as §1

[7] = test system: WT (S-416) plants; test: Physiological characterization under Imazamox, WT parental line; type: in vivo, Sesamum indicum; conditions: Imazamox 48 g a.i. h^−1
Procedure: as §1

[8] = test system: WT plants (S-416); test: Imazamox spraying for resistance validation, WT; type: in vivo, Sesamum indicum; conditions: Imazamox 48 g a.i. ha^−1; seven days after spraying
[9] = test system: WT (S-416) sesame; test: Imazamox post-emergence field experiment, WT sesame; type: in vivo, Sesamum indicum; conditions: Imazamox 40 g a.i. h^−1
[10] = test system: mutant plants (SiRM); test: Imazamox spraying for resistance validation, M3 mutant plants; conditions: Imazamox 48 g a.i. ha^−1; seven days after spraying
Text: Genomic DNA was extracted using the CTAB protocol, with modification for sesame as described before (Teboul et al., 2020. Genes, 11, 1221). To test possible mutation(s) in the SiALS gene, a targeted sequencing was applied using four primer pairs covering the whole gene sequence (Table 1) according to the sequenced sesame genome (Zhongzhi No. 13; Wang et al., 2014. Genome Biology, 15:1-13). The gene was amplified, and PCR products were sequenced (HUJI genome center, Israel). Sequence alignment was performed using the Clustal Omega tool (Madeira et al., 2019. Nucleic Acids Research, 47:636-641).

[11] = test system: WT plants; test: Field observation after Imazapic recommended dose, WT; type: in vivo, Sesamum indicum; conditions: Imazapic 48 g a.i. h^−1
[12] = test system: resistant plants of the invention (SiRM); test: 2021 field trial, Imazapic pre-emergence, sesame performance; type: in vivo, Sesamum indicum; conditions: pre-emergence Imazapic 48 g a.i. ha^−1
Procedure: (§2) An additional field experiment was conducted during the summer of 2021 at the Experimental Farm of the Hebrew University of Jerusalem, Rehovot, Israel. A split-plot random block design with six replicates was applied. Treatments included: weed-free plots (i.e., manual weeding), untreated control (i.e., herbicide-free treatment) and application of Imazapic (48 g a.i. ha^−1) pre-germination. The plot size was 3.6 m×0.8 m (10 cm between plants) with two rows per plot. To evaluate the efficacy of weed control, two weeds were sown on the sesame sowing lines (Amaranthus Palmeri, 500 seeds per plot, and Abutilon Theophrastus, 70 seeds per plot). Phenological characterization was conducted during the growing season for the flowering date, the number of brunches per plant and the height to the first capsule. At the end of the growing season, the number of weeds per plot was counted and weeds were harvested for dry weight measurements. Sesame plants were harvested 1 m from the middle of the plot, samples were threshed using a laboratory thresher (Wintersteiger AG LD 350, Austria), and after sifting, the seeds were weighed to obtain seed yield.

[13] = test system: WT plants; test: Imazapic pre-emergence pot experiment, WT; type: in vivo, Sesamum indicum
[14] = test system: SiRM plants; test: Roots development under increasing dosages of Imazapic; type: in vivo, Sesamum indicum; conditions: pre-emergence; 24, 48, 96 and 192 g a.i. ha^−1; sandy soil; 14 DAT
[15] = test system: Abutilon Theophrastus; test: 2021 field trial, Imazapic pre-emergence, weed control; type: in vivo; conditions: pre-emergence Imazapic 48 g a.i. ha^−1; field 2021
Procedure: as §2

[16] = test system: Amaranthus palmeri; test: as above; type: in vivo; conditions: pre-emergence Imazapic 48 g a.i. ha^−1; field 2021
Procedure: as §2

[17] = test system: SiRM plants; conditions: pre-emergence
[18] = test system: SiRM plants; test: Field observation after Imazapic recommended dose, SiRM; type: in vivo, Sesamum indicum; conditions: Imazapic 48 g a.i. h^−1

COc1ncc(F)c2nc(S(=O)(=O)Nc3c(F)cccc3F)nn12 [Florasulam, N-(2,6-difluorophenyl)-8-fluoro-5-methoxy-[1,2,4]triazolo[1,5-c]pyrimidine-2-sulfonamide]
ED50 WT [1]: 31 g a.i. ha^−1 | ED50 SiRM [2]: 62 g a.i. ha^−1 | RI (resistance index) [2]: 2

COc1cc(OC)nc(NC(=O)NS(=O)(=O)c2cc(NC=O)ccc2C(=O)N(C)C)n1 [Foramsulfuron, 2-[(4,6-dimethoxypyrimidin-2-yl)carbamoylsulfamoyl]-4-formamido-N,N-dimethylbenzamide]
ED50 WT [1]: 41 g a.i. ha^−1 | reduction in shoot DW, WT ([1]; under the recommended dose): 25% | reduction in shoot length, WT ([1]; under the recommended dose): 64% | ED50 SiRM [2]: 165 g a.i. ha^−1 | RI (resistance index) [2]: 3.95 | reduction in shoot DW, SiRM ([2]; under the recommended dose): 8% | reduction in shoot length, SiRM ([2]; under the recommended dose): 58%

COCc1cnc(C2=NC(C)(C(C)C)C(=O)N2)c(C(=O)O)c1 (stereo not shown) [Imazamox, 5-(methoxymethyl)-2-(4-methyl-5-oxo-4-propan-2-yl-1H-imidazol-2-yl) pyridine-3-carboxylic acid]
number of A. palmeri plants [3]: ~0 A. palmeri plants per meter plot | ED50 WT [1]: 18 g a.i. ha^−1 | dose at which WT plants already exhibited visual symptoms and reduced shoot DW ([1]; post-emergence dose-response): 6 g a.i. ha^−1 | recovery of assimilation, hybrid plants [4]: after six days they fully recovered | reduction in plant height, hybrid plants ([4]; 21 DAT): ~40% | reduction in shoot DW, hybrid plants ([4]; 21 DAT): ~35% | nodes to the first flower, hybrid plants treated ([4]; UTC 5.6): 11.4 nodes | nodes length, hybrid plants treated ([4]; UTC 8.0): 2.4 cm | height of first flower bud, hybrid plants treated ([4]; UTC 44.6): 27.6 cm | seed yield per plot, SiRM ([5]; Imazamox 40 g a.i. h^−1, control 16.7, P=0.02): 31.5 g | effect on the SiRM plots stand ([5]; Imazamox 40 g a.i. h^−1, field): no significant effect | seed yield per plant, SiRM ([5]; Imazamox 40 g a.i. h^−1, weed-free control 2.88, P=0.011): 6.05 g per plant | yield of SiRM compared to the corresponding weed-free UTC ([5]; field conditions, post-emergence): two-fold greater yield | state of SiRM plants at the end of the experiment ([6]; 21 DAT): showed no effect of Imazamox treatment | recovery of assimilation, SiRM ([6]; after 48 h): recover completely and did not differ from the UTC plants | state of WT plants at the end of the experiment ([7]; 21 DAT): fully eradicated | assimilation rate of WT ([7]; after 48 h): < 20% | visual symptoms, WT [8]: reduced growth and meristem damages | reduction in WT sesame stand ([9]; field, P<0.0001): 75% | seed yield per plant, WT ([9]; weed-free control 3.6, P=0.0015): 0.93 g per plant | seed yield per plot, WT ([9]; weed-free control 19, P=0.0002): 1.6 g | increment in shoot DW compared with untreated control plants ([2]; SiRM, low doses of 3, 6 and 12 g a.i. h^−1): 50% | ED50 SiRM [2]: 823 g a.i. ha^−1 | RI (resistance index) [2]: 45 | visual symptoms, SiRM [10]: did not display any visual symptoms

Cc1cnc(C2=NC(C)(C(C)C)C(=O)N2)c(C(=O)O)c1 (stereo not shown) [Imazapic, 5-methyl-2-(4-methyl-5-oxo-4-propan-2-yl-1H-imidazol-2-yl) pyridine-3-carboxylic acid]
reduction in growth of WT ([1]; at 6 g a.i. h^−1, P=0.0055): 18% | ED50 WT [1]: 236 g a.i. ha^−1 | state of WT plants in the field [11]: dead already 10 DAT | height to the first capsule [12]: reduced height to the first capsule | effect on growth of the resistant plants ([12]; compared with weed-free control): no deleterious effects | development of WT plants ([13]; 144 g a.i. h^−1): fully controlled and did not develop beyond the growth of the cotyledons | canopy coverage, WT ([13]; 144 g a.i. h^−1, 14 days after sowing, control 2.23, P=0.0008): 0.27 % of coverage | root length, WT ([13]; 144 g a.i. h^−1, control 82): 5 mm | root volume, SiRM [14]: didn't show any significant differences in root volume | control of Abutilon [15]: didn't develop beyond the cotyledons | control of A. Palmeri [16]: didn't emerge (full-control) | survival rate, SiRM ([17]; 48, 96 and 144 g a.i. h^−1, clay soil): 100% | development of SiRM plants ([17]; 144 g a.i. h^−1): developed normally without any visual differences compared to the untreated control | canopy coverage, SiRM ([17]; 144 g a.i. h^−1, 14 days after sowing): maintained similar values | root length, SiRM ([17]; 144 g a.i. h^−1, control 72, P=0.106): 85 mm | rate at which SiRM exhibited severe damage symptoms ([2]; 16X): 768 g a.i. h^−1 | ED50 SiRM [2]: 563 g a.i. ha^−1 | dose up to which SiRM plants were not affected ([2]; post-emergence dose-response): ≤ 96 g a.i. h^−1 | RI (resistance index) [2]: 2.4 | state of SiRM plants in the field [18]: only slightly affected and showed a five-day delay in shoot development and flowering time
